“And” between values parts separate entries of the source, which are not always exact repeats. Equal entries are not always repeated.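 Five concentrations, 48 hours, 96-well plates. GI50 is the concentration that inhibits growth by half. TGI is the concentration that stops growth completely.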
Experiments:
Test in all cases: NCI tumour cell line growth inhibition, 48 h
[1] = system: LXFL 529 NSCLC
[2] = system: RXF-631 renal
[3] = system: HOP-18 NSCLC
[4] = system: KM20L2 colon
[5] = system: SNB-78 CNS
[6] = system: NCI/ADR-RES ovarian
[7] = system: MDA-MB-231 breast
[8] = system: DU-145 prostate
[9] = system: MDA-N
[10] = system: P388/ADR leukemia
[11] = system: SN12K1 renal
[12] = system: P388 leukemia

With NC(N)=NS(=O)(=O)c1ccc(NC(=O)c2cccn3c(=O)c4ccccc4nc23)cc1 the TGI [1] was over 100 µM, the TGI [2] was over 100 µM and the TGI [3] was over 100 µM. It also gave a TGI [4] of 63.7 µM and a TGI [5] of over 100 µM.
In the case of CN1CCN2c3ccccc3CC(C#N)(C#N)C2C1 (centres undefined), the TGI [1] is reported as over 100 µM, the TGI [2] is reported as over 100 µM and the TGI [3] is reported as over 100 µM. It also gave a TGI [4] of over 100 µM and a TGI [5] of over 100 µM.
N#CC1=C(c2ccccc2)NN(Cc2ccccc2)C(c2ccc(Cl)cc2)CC1=O (centres undefined) was tested, and the TGI [1] was over 100 µM, the TGI [2] was 85.3 µM and the TGI [3] was 73.5 µM. It also gave a TGI [4] of 75.8 µM and a TGI [5] of over 100 µM.
With CCOC(=O)NC(=O)c1cn(CC(=O)NCC(=O)NCC(=O)N2CCN(CCn3c(C)nc(C(N)=O)c3N)CC2)c(=O)[nH]c1=O the TGI [1] was over 100 µM, the TGI [2] was over 100 µM and the TGI [3] was over 100 µM. It also gave a TGI [4] of over 100 µM and a TGI [5] of over 100 µM.
Work on CC12CCC(=O)N1c1cc([N+](=O)[O-])ccc1N2 (centres undefined) yielded a TGI [1] of over 100 µM, a TGI [2] of over 100 µM and a TGI [3] of over 100 µM. It also gave a TGI [4] of over 100 µM and a TGI [5] of over 100 µM.
Clc1cc(Cl)cc(C2SCc3nc4ccccc4n32)c1 (centres undefined) was tested, and the TGI [1] was 36.3 µM, the TGI [2] was 32.9 µM and the TGI [3] was 67.8 µM. The TGI [5] was 60.1 µM.
For CC(=O)O[C@H]1CC[C@@]2(C)C(=CC[C@@H]3C2CC[C@]2(C)C(=O)NC(=O)CC32)C1 (some centres undefined), the TGI [1] was over 100 µM, the TGI [2] was over 100 µM and the TGI [3] was over 100 µM. The TGI [4] was over 100 µM and the TGI [5] was over 100 µM.
C/C(=N\N)C(CN1CCCCC1)C(c1ccccc1)c1c(O)c2ccccc2oc1=O (centres undefined) was tested, and the TGI [1] was over 100 µM, the TGI [6] was over 100 µM and the TGI [2] was over 100 µM. It also gave a TGI [7] of over 100 µM, a TGI [4] of over 100 µM and a TGI [5] of over 100 µM. It also gave a TGI [8] of over 100 µM.
For CS(=O)(=O)OCCCCOS(C)(=O)=O, the GI50 [9] was over 1000 µM, the TGI [9] was 250 µM and > 1000 µM and the TGI [1] was over 250 µM. The GI50 [6] was over 1000 µM, the TGI [6] was 250 µM and > 1000 µM and the GI50 [7] was over 250 µM. The TGI [7] was over 1000 µM, the TGI [10] was 246 µM and the TGI [3] was over 200 µM. It also gave a TGI [11] of 224 µM, a TGI [12] of 250 µM and a TGI [4] of over 235 µM. The TGI [5] was 233 µM, the GI50 [8] was 774 µM and the TGI [8] was 250 µM and > 1000 µM.
In the case of C[C@]12CC[C@H](OC(=O)Cc3ccc(N(CCCl)CCCl)cc3)CC1CC[C@@H]1C2CC[C@]2(C)NC(=O)CCC12 (some centres undefined), the TGI [1] is reported as 25 µM, the TGI [2] is reported as 34.1 µM and the TGI [3] is reported as 31.4 µM. It also gave a TGI [4] of 23.7 µM and a TGI [5] of 39.3 µM.
Work on COC(=O)c1ccc(CS(=O)(=O)c2ccccc2)cc1 yielded a TGI [1] of over 100 µM, a TGI [2] of over 100 µM and a TGI [3] of over 100 µM. For the same compound, the TGI [4] was over 100 µM and the TGI [5] was over 100 µM.
Compound Cc1ccc2oc(=O)cc(CC(=O)O)c2c1 has a TGI [1] of over 100 µM, a TGI [2] of over 100 µM and a TGI [3] of over 100 µM. The TGI [4] was over 100 µM.
Work on CCOC(=O)C1Nc2ccc([N+](=O)[O-])cc2[C@H]2OCC[C@@H]12 (some centres undefined) yielded a TGI [2] of over 100 µM, a TGI [3] of over 100 µM and a TGI [4] of over 100 µM. The TGI [5] was over 100 µM.
Compound CC(C)COC(=O)N1N=NC2C3CC(=O)C(O3)C21 (centres undefined) has a TGI [1] of over 100 µM, a TGI [2] of over 100 µM and a TGI [3] of over 100 µM. The TGI [4] was over 100 µM and the TGI [5] was over 100 µM.
With CC(=O)OC1COC(n2c(O)c(N=Nc3ccc([N+](=O)[O-])cc3)c3cc(Br)c([N+](=O)[O-])cc32)C(OC(C)=O)C1OC(C)=O (centres undefined) the TGI [1] was over 100 µM, the TGI [2] was over 100 µM and the TGI [3] was over 100 µM. The TGI [4] was over 100 µM and the TGI [5] was 75.8 µM.
CC(C)(C)c1cc(O)c2c(c1O)C(=O)CCC2 gave a TGI [1] of over 100 µM, a TGI [2] of over 100 µM and a TGI [3] of over 100 µM. It also gave a TGI [4] of over 100 µM and a TGI [5] of over 100 µM.

— PubChem BioAssay (NCI)
